Laboratory results reported in patent publication US20170209544A1, “A PEPTIDE THERAPY TO COUNTERACT INSULIN RESISTANCE AND TYPE 2 DIABETES” (The Regents of the University of California, priority 2014, published 2017).
Where no end group is shown, it is not given here.

Columns and labels:
peritoneal macrophages = test: In vitro chemotaxis assay; format: cell-based, mice
Procedure: In vitro chemotaxis assays were performed as previously described. Briefly, thioglycollate-activated peritoneal macrophages were isolated from 8 week-old male C57BL/6J mice and pretreated with the indicated concentrations of PST for 2 hours at 37° C. in serum-free RPMI. For migration analysis, 200,000 peritoneal macrophages were placed in each of the upper chamber of a 4-μm polycarbonate filter (24-transwell format; Corning, Tewksbury, Mass.), whereas compounds resuspended in serum-free RPMI at the indicated concentrations were placed in the lower chamber. After 3 hours of migration at 37° C., cells were fixed in 4% paraformaldehyde, stained with DAPI and counted under the microscope.

WT-NCD mice = test: IP-ITT in WT-NCD mice; format: in vivo; conditions: chronic PST 5 μg/g BW for 15 days; WT mice on NCD
Procedure: For glucose tolerance tests (GTT), glucose (1 mg/g) was injected intraperitoneally (IP-GTT) (at time zero) or gavaged orally (O-GTT) after a 12-hours fast. Tail-vein glucose levels were measured at −30, 0, 15, 30, 60, 90, and 120 minutes. For insulin tolerance tests (ITT), insulin (0.4 mU/g) was injected intraperitoneally and blood glucose levels were measured at the indicated time points. Chronic PST (5 μg/g/day) and PSTv1 (10 μg/day) treatments were carried out for 15 days. For acute treatment, either peptides or saline were injected 30 minutes before glucose or insulin injection. Synergy Software Kaleidagraph Version 4.0 calculated the area under the curve (AUC) for each line curve.
Treatment with the PST variant PSTv1 improves, whereas PST worsens, glucose tolerance and insulin sensitivity in WT-DIO and WT-NCD mice. WT-DIO mice were treated with saline or PSTv1 (10 μg/g BW/day) for 15 days. Weight-matched DIO mice were fasted for 12 hrs and subjected to IP-GTT (2-way ANOVA: Treatment, p<0.0001; Time, p<0.0001; Interaction, p=0.17, n=6, as shown in FIG. 13A) and IP-ITT (2-way ANOVA: Treatment, p<0.0001; Time, p<0.0001; Interaction, p=0.62 n=9, as shown in FIG. 13C) and AUCs for glucose excursions were determined (as shown in FIGS. 13B and 13D). […]

Chga-KO mice = test: Glucose-stimulated insulin secretion during GTT in Chga-KO mice; format: in vivo
Text: As shown in FIGS. 4A-4D, to compare the effects of PSTv1 (the peptide with SEQ ID NO. 1) vs. PST on glucose-stimulated insulin secretion (GSIS), the inventors analyzed plasma insulin levels in Chga-KO mice during GTT experiments.

KO-DIO mice = test: Immunoblot of signaling in PST-treated KO-DIO mice; format: in vivo
Procedure: Tissues were homogenized in a buffer containing phosphatase and protease inhibitors. Homogenates were subjected to SDS-PAGE and immunoblotted. Primary antibodies for phosphorylated and total Akt, AMPK, FoxO1, and JNK were from Cell Signaling Technology (Beverly, Mass.). Actin and Srebp-1 antibodies were from Santa Cruz Biotechnology (CA).
Phosphorylation and activation of Akt, an important component of the insulin signaling pathway was analyzed by Western blot. […] Weight-matched saline-treated WT-DIO or KO-DIO and PST-treated KO-DIO mice were fasted for 12 hrs, injected with insulin (0.4 mU/g BW, IP) for 10 min and sacrificed for tissue collection. Tissues were homogenized, lysates were subjected to SDS-PAGE and immunoblotted for p-Akt in muscle (14A, n=4), WAT (14B, n=4) and liver (14C, n=4) and for p-AMPK in muscle (14D), WAT (14E) and liver (14F). “*” Denotes comparison between the indicated groups. “*”: P<0.05, “**”: p<0.01, “***”: p<0.001.
The insulin-stimulated phosphorylation of FoxO1, downstream of Akt (82 kDa pFoxO1 and 95 kDa pFoxO1), in KO-DIO mice was higher in WAT and the liver than corresponding insulin-treated WT-DIO tissues (FIGS. 16A and 16B). Weight-matched saline-treated WT-DIO or KO-DIO and PST-treated KO-DIO mice were fasted for 12 hrs, injected with insulin (0.4 mU/g BW, IP) for 10 min and sacrificed for tissue collection. Tissues were homogenized, lysates were subjected to SDS-PAGE and subsequently immunoblotted to detect phospho-p95-FoxO1 and phospho-p82-FoxO1 signals in WAT (16A, n=4) and phospho-p82-FoxO1 signals in liver (16B, n=4), phospho-p54-Jnk and phospho-p46-Jnk signals in WAT (16C, n=4) and liver (16D, n=4), and p125-Srebp-1 and p-68-Srebp-1 (mature) signals in liver (16E, n=4). “*” Denotes comparison between the indicated groups. “*”: P<0.05, “**”: p<0.01, “***”: p<0.001.

## PEGKGEQEHSQQKEEEEEMAVVPQGLFRG-amide (PEGKGEQEHSQQKEEEEEMAVVPQGLFRG-NH2) [PST, Wild-type human pancreastatin, a chromogranin A derived peptide]
Peritoneal macrophages; 10 nM PST vs 10 nM Mcp-1
  chemotaxis relative to Mcp-1: 44%
Peritoneal macrophages; peritoneal macrophage cultures
  chemotaxis compared to saline-treated controls: significantly higher levels of chemotaxis
WT-NCD mice
  insulin sensitivity (IP-ITT): induced insulin resistance
Chga-KO mice
  glucose-stimulated insulin secretion (GSIS): lowers GSIS
  plasma glucose concentration: without lowering plasma glucose concentration
KO-DIO mice; WAT
  FoxO1 signaling in WAT: modulated
  increased insulin-stimulated pFoxO1-p95 signals in WAT: reversed
KO-DIO mice; liver
  hepatic AMPK, FoxO1 or Jnk signaling: did not alter
KO-DIO mice; liver, compared to untreated KO-DIO
  Srebp-1c p68 to p125 ratio: decreased
KO-DIO mice; muscle, WAT and liver
  AMPK signaling: did not change the overall pattern
  stimulation of Akt phosphorylation by insulin: completely inhibited
